What all share (experiment): NCI-60 cell line screen, 48 h
For assay [1], the system named is HS 578T breast.
The test system of assay [2] is UACC-62 melanoma.
Assay [3] relates to HOP-62 NSCLC.
Assay [4] relates to SK-MEL-2 melanoma.
Assay [5] deals with K-562 leukemia.
The test system of assay [6] is OVCAR-5 ovarian.
Assay [7] relates to ACHN renal.
Assay [8] has as its system CCRF-CEM leukemia.
The test system of assay [9] is OVCAR-4 ovarian.
Assay [10] concerns SF-539 CNS.

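These data come from cells grown in 96-well plates and exposed to compound for 48 hours at five concentrations. GI50 is the concentration that inhibits growth by half. TGI: concentration producing complete growth inhibition.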 A value given as a limit tells only on which side of the number the result lay.

`O=C1CC(c2ccccc2Cl)C2(C(=O)NC(=O)NC2=O)C(c2ccccc2Cl)C1` (stereo not drawn): the TGI in [1], in assay [2], in assay [3], in assay [4], in assay [5] and in assay [6] was over 100 µM each time. Further, the TGI in [7], in [8], in [9] and in [10] was over 100 µM each time.
As to `Cc1nnc2n1-c1ccccc1N(Cc1ccccc1)CC2`, the TGI in [1], in assay [2], in [3], in [4], in assay [5] and in [6] was over 100 µM each time. Moreover, the TGI was over 100 µM in assay [7], 90.3 µM in [8], over 100 µM in [9] and over 100 µM in assay [10].
On to `Clc1cc(C(c2cc(Cl)sc2Cl)c2cc(Cl)sc2Cl)c(Cl)s1`, for which the TGI in assay [1], in assay [2], in assay [3], in assay [4], in [5] and in assay [6] was over 100 µM throughout. Also, the TGI in assay [7], in assay [8], in assay [9] and in assay [10] was over 100 µM throughout.
On to `C[N+]1(CCN=C=NC2CCCCC2)CCOCC1`, for which the TGI in [1], in assay [2], in [3], in assay [4], in assay [5] and in assay [6] was over 100 µM in each case. Also, the TGI in assay [7], in assay [8], in assay [9] and in [10] was over 100 µM each time.
For the compound `C#CCOCC12C=CC(O1)C1COC(=O)C12` (stereo not drawn), the TGI in assay [1], in assay [2], in assay [3], in assay [5], in [6] and in [7] was over 100 µM each time. In addition, the TGI in assay [8], in assay [9] and in [10] was over 100 µM throughout.
For the compound `N#Cc1nc(CCCN2C(=O)c3ccccc3C2=O)oc1N`, the TGI in [1], in assay [3], in assay [4], in [5], in assay [6] and in [7] was over 100 µM throughout. Besides, the TGI in assay [8], in [9] and in assay [10] was over 100 µM each time.
As to `Cc1nc(SCC(N)=O)c2sc(=S)n(-c3ccccc3)c2n1`, the TGI in [1], in [2], in [3], in assay [4], in assay [5] and in assay [6] was over 10 µM in each case. Further, the TGI in assay [7], in [8], in assay [9] and in assay [10] was over 10 µM each time.
In the case of `O=C1CS/C(=N/N=C/c2cn(Cc3ccc(Cl)cc3Cl)c3ccccc23)N1`, the TGI in assay [1] is 83.6 µM; in assay [2], over 100 µM; in [3] it was over 100 µM; in assay [4] it was 74.7 µM; in assay [5], over 100 µM; in assay [6], over 100 µM. The TGI is over 100 µM in [7], 56.4 µM in assay [8], over 100 µM in [9] and 41 µM in assay [10].
On to `CNC(=S)NNc1ncnc2c1c(-c1ccc(Cl)cc1)cn2-c1ccc(C)cc1`, for which the TGI is 57.8 µM in assay [1]; 40.7 µM in assay [2]; 39.2 µM in [3]; 27.7 µM in assay [4]; over 100 µM in [5]; 29 µM in [6]. The TGI in [7] was 22.8 µM; in assay [8] it was over 100 µM; in [9], 37.6 µM; in [10], 29.8 µM.
In the case of `O=c1ccn(-c2ccccn2)c(=O)n1-c1ccccn1`, the TGI in assay [1], in assay [3], in [4], in assay [5], in assay [6] and in assay [7] was over 100 µM throughout. For the same compound, the TGI in assay [8], in assay [9] and in assay [10] was over 100 µM in each case.
For `O=C1c2cccnc2S(=O)(=O)N1c1ccc([N+](=O)[O-])cc1`, the TGI in assay [1], in [2], in [3], in assay [4], in assay [6] and in assay [7] was over 100 µM throughout. Moreover, the TGI in assay [8], in assay [9] and in assay [10] was over 100 µM each time.
In the case of `CCN(CCCCCCCCCCN1CC(=O)N(CCCCCCCCCCN(CC)Cc2ccccc2OC)CC1=O)Cc1ccccc1OC`, the GI50 is 1350 nM in assay [1]; 2060 nM in assay [2]; 1560 nM in assay [3]; 388 nM in [5]; 3.36 µM in assay [6]; 2360 nM in assay [7]. Moreover, the GI50 is 2110 nM in [8], 1770 nM in [9] and 1580 nM in assay [10]. Besides, the TGI in assay [1] stood at 4.26 µM; in assay [2] it was 3.89 µM; in assay [3], 3.05 µM; in assay [5], 12 µM; in assay [6], 15.1 µM; in assay [7], 6.82 µM. Also, the TGI in [8] was found to be 10.1 µM; in assay [9] it was 6.59 µM; in [10], 3.33 µM.
Regarding `CCOC(=O)Cn1nnc2cc(Nc3c(C)[n+]([O-])c4cc(F)c(OCC)cc4[n+]3[O-])ccc21`, the TGI in [1] was over 100 µM; in assay [3] it was 89.5 µM; in [4], over 100 µM; in [5], over 100 µM; in assay [6] it was over 100 µM; in assay [7], over 100 µM. In addition, the TGI in [8], in assay [9] and in assay [10] was over 100 µM throughout.

(Values after PubChem BioAssay (NCI).)
